Assay results from US20110263516A1, “VASODILATOR” (CALPIS CO., LTD., priority 2006, published 2011).

What was measured:
[1] = system: thoracic aorta ring of a Wistar rat; assay: Vasodilating test on phenylephrine-preconstricted aorta ring (Magnus apparatus); type: cell-based; conditions: aorta ring preconstricted with 1 μM phenylephrine; for vasodilator response at 10 mM: FIG. 1; for concentration from which the vasodilator response was observed: ten-fold increasing concentrations from 10^-9 M, change in tension
Description: The thoracic aorta of a Wistar rat was taken out, cut into 2 mm long, and made into an aorta ring. The ring was set in a Magnus apparatus (product name “micro tissue organ bath MTB-1Z”, manufactured by LABO SUPPORT CO., LTD.), and allowed to equilibrate with a constant tension. The constriction response of the aorta ring was confirmed with 50 mM KCl.
Next, the aorta ring was preliminarily constricted with 1 μM phenylephrine, and VPP and IPP prepared in Synthesis Example were added at ten-fold increasing concentrations from 10^−9 M to observe the vasodilator response through the change in tension of the aorta ring. The dose dependency of the vasodilator response was also studied.
The vasodilating test was conducted in the same way as in Example 1, except that the tripeptides VPP and IPP were replaced with amino acids, valine (Val) and proline (Pro), at the same concentration.

[2] = system: blood vessel from which the vascular endothelium was physically removed; assay: Confirmatory test for endothelium dependency of vasodilator response; type: cell-based, Wistar rat; conditions: endothelium-removed vessel compared with intact vessel; FIG. 2
Description: In order to confirm that the vasodilator effect of VPP and IPP was associated with the vascular endothelium, a vasodilating test similar to the above was conducted with VPP, using as a control a blood vessel from which the vascular endothelium was physically removed by a routine method.

Compound | vasodilator response at 10 mM [1] | concentration from which the vasodilator response was observed [1] [mM] | vasodilator response after removal of the endothelium [2]
CC(C)[C@H](N)C(=O)O [Val, valine, reference compound] | no vasodilator response was observed |  | 
Ile-Pro-Pro [IPP] | clear, transient vasodilator response | 1 | 
Val-Pro-Pro [VPP] | clear, transient vasodilator response | 1 | weakened
O=C(O)[C@@H]1CCCN1 [Pro, proline, reference compound] | no vasodilator response was observed |  | 
